Source: patent US7928060B2, “Amylin family polypeptide-6 (AFP-6) analogs and methods of making and using them” (Amylin Pharmaceuticals, Inc., priority 2004, dated 2011)
Read-outs that look alike come from different tables or passages of the source. Bridge positions count the residues as written; N and C are the ends. Ends that are not written are not given here. Peptide text beside a SMILES is read from it.

Legend:
CGRP receptors = target: T1, CGRP receptors (Homo sapiens, UniProt O60894+Q16602); test: CGRP radioligand binding assay (125I-hCGRP, SK-N-MC cell membranes)
T1 construct: membranes prepared from SK-N-MC cells, known to express CGRP receptors; endogenous in cells; host or cells: SK-N-MC cell membranes

calcitonin receptor = target: T2, calcitonin receptor (Rattus norvegicus, UniProt P32214); test: calcitonin receptor binding assay (rCalcitonin RBA); settings: Table 6; read-out: CT receptor binding
T2 sequence (P32214 25-516): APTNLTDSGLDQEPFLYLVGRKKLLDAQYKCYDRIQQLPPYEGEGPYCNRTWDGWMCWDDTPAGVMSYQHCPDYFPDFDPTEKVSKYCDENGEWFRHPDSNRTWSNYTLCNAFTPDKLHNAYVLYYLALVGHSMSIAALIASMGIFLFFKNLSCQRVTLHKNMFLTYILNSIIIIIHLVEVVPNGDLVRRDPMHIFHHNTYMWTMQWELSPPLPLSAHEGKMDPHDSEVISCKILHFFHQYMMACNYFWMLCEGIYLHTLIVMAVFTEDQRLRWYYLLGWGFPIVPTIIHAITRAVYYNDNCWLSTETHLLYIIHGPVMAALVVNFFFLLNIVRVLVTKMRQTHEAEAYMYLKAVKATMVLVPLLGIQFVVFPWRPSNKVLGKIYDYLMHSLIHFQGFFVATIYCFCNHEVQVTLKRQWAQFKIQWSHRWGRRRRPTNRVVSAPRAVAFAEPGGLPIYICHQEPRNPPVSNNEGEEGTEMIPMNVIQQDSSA

adrenomedullin receptor = adrenomedullin receptor (Homo sapiens, UniProt O60895+Q16602); test: adrenomedullin (ADM) receptor binding assay; settings: Table 6
amylin receptors = target: T3, amylin receptors (Rattus norvegicus, UniProt P32214); test: amylin radioligand binding assay (125I-rat amylin, nucleus accumbens membranes); settings: Table 6; read-out: Amylin receptor binding
T3 construct: This basal forebrain tissue, containing the nucleus accumbens and surrounding regions, was weighed and homogenized; from tissue; host or cells: rat basal forebrain (nucleus accumbens) membranes, male Sprague-Dawley rats
T3 sequence (P32214 25-516): T2 sequence (P32214 25-516)
Procedure: Unlabeled peptides were obtained from BACHEM Inc. (Torrance, Calif.).
Male Sprague-Dawley® rats (200-250) grams were sacrificed by decapitation. Brains were removed and place in cold phosphate-buffered saline (PBS). From the ventral surface, cuts were made rostral to the hypothalamus, bounded laterally by the olfactory tracts and extending at a 45° angle medially from these tracts. […] Membranes were washed three times in fresh buffer by centrifugation for 15 minutes at 48,000×g. The final membrane pellet was resuspended in 20 mM HEPES buffer containing 0.2 mM phenylmethylsulfonyl fluoride (PMSF).
Solutions were incubated for 60 minutes at 2 C. […] Filters were washed immediately before filtration with 5 ml cold PBS, and immediately after filtration with 15 ml cold PBS. […] Competition curves were generated by measuring binding in the presence of 10^−12 to 10^−6 M unlabeled test compound and were analyzed by nonlinear regression using a 4-parameter logistic equation (INPLOT program; […] Software, San Diego, Calif.).

NIH/Swiss mice = test: acute food intake assay in overnight-fasted mice, IP injection; type: in vivo, mouse; settings: for FI 30 min ED50 / FI 60 min ED50: food intake
Procedure: The effect of AFP-6 on food intake was investigated using an acute food intake assay. This assay measured food consumption in lean, group-housed, overnight-fasted NIH/Swiss mice. 12 mice were housed 3 to a cage. The sample compound, in this case AFP-6, was injected IP in mice and food intake was measured during the next 2-hours. Decreased, as well as increased, food intake can be measured. Testing various doses of the compound generated ED50's. The assay was performed as follows: 1. Remove food (water ad libitum) at 5:00 pm the evening before the study. 2. Weigh food pellets (3 pellets/cage). 3. Inject animals intraperitoneally with 200 ul of appropriate solution, t=0. 4. Immediately add pre-weighed food to each cage (away from water bottle spout) and allow animals to feed undisturbed. 5. At 30, 60, and 120 minutes, collect and weigh food. 6. Analyze data. Data points represent mean ±sd of n=12.
Twelve mice were injected IP at t=0 for each dose, 0.3, 1, 3, 10, 30, 100, or 300 nmol/kg of AFP-6 (Amylin Pharmaceuticals, Inc.) (n=12/group). Food was introduced immediately after injection and amount consumed measured at t=30, 60, and 120 min.

Sprague-Dawley rats = test: 1-week continuous subcutaneous infusion in high fat-fed rats: food intake and body weight; type: in vivo, rat; settings: 75 nmol/kg/day
From the text: Individually housed male Sprague-Dawley® rats (beginning weight=310 g; 12-h light/dark cycle) were maintained on a high fat (HF) diet (Research Diet 58% kcal from fat). Rats were fattened for 34 days. At the end of the fattening period, 7-day osmotic pumps (Durect Corp.) were implanted interscapularly under anesthesia (body weight at time of implant=403 g). The rats received pumps delivering compound or vehicle (50% DMSO). The following compounds were examined at a 75 nmol/kg/day dose: AFP-6, and an AFP-6 analog SEQ ID NO:32. Food intake and body weight measurements were obtained on day 2 and day 7. Group differences were analyzed using analysis of variance (ANOVA) and Fisher's Least-Significant Difference test.

Sequence of adrenomedullin receptor (Q16602 23-461): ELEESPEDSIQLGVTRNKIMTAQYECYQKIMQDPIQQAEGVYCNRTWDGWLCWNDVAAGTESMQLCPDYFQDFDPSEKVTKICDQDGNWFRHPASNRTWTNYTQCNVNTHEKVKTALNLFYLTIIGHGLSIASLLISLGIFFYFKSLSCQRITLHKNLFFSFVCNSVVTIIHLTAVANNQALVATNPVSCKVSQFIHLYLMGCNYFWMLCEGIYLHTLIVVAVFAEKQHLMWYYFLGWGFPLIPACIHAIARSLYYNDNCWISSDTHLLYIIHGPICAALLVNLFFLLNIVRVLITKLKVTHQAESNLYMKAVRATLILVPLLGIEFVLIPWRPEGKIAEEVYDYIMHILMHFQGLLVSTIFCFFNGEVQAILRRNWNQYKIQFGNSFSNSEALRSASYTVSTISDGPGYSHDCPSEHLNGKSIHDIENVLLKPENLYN
Sequence of adrenomedullin receptor (O60895 43-175): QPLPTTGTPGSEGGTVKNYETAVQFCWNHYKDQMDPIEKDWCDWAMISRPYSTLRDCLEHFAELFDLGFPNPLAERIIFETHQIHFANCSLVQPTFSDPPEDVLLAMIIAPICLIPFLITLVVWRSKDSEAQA
T1 sequence (Q16602 23-461): as the sequence (Q16602 23-461) above
T1 sequence (O60894 27-148): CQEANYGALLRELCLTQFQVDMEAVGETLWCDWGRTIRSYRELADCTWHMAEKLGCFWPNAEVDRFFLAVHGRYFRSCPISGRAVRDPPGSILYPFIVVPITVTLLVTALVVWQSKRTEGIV

| Molecule | IC50 (CGRP receptors; Table 6) [nM] | IC50 (calcitonin receptor) [nM] | IC50 (adrenomedullin receptor) [nM] | IC50 (amylin receptors) [nM] | also measured |
| --- | --- | --- | --- | --- | --- |
| Rat calcitonin: rat calcitonin, reference peptide in the food intake assay (CGNLSTCMLGTYTQDLNKFHTFPQTSIGVGAP; ends and bridges not checked; cysteine pairing not given here; UniProt P01257 85-116, looked up) |  |  |  |  | inhibition of food intake (NIH/Swiss mice; 0.63 mg/kg, mice, not significant): 16% |
| TQAQLLRVGCVLGTCQVQNLSHRLWQLMGPAGRQESAPVEPSSPHSY-NH2 (cysteine pairing not given here) [SEQ ID NO: 32] |  |  |  |  | body weight gain compared to Vehicle (Sprague-Dawley rats; Day 7): significantly less body weight gain than Vehicle; percent body weight loss (vehicle-corrected) (Sprague-Dawley rats; Day 7): 2.1%; food intake compared to Vehicle (Sprague-Dawley rats; after 2 days of treatment): significantly reduced food intake |
| VQNLSHRLWQLMGPAGRQDSAPVDPSSPHSY-NH2 [compound 14] | > 1000 | > 1000 | 59 | > 1000 |  |
| r/h Adrenomedullin: Amylin Family polypeptide of Table 3; r/h not resolved per value |  |  |  |  | FI 30 min ED50 (NIH/Swiss mice): 18 nmol/kg; FI 60 min ED50 (NIH/Swiss mice): 13 nmol/kg |
| r/h Amylin: Amylin Family polypeptide of Table 3; r/h not resolved per value (KCNTATCATQRLANFLVHSSNNFGAILSSTNVGSNTY; Islet amyloid polypeptide; UniProt P10997 34-70, looked up) |  |  |  |  | FI 30 min ED50 (NIH/Swiss mice): 11 to 25 nmol/kg; FI 60 min ED50 (NIH/Swiss mice): 25 to 33 nmol/kg; IC50 (CGRP receptors; read-out: IC50 CGRP RBA, Table 3): 12 nM |

The next lines start with results.

| IC50 (CGRP receptors; Table 6) [nM] | IC50 (calcitonin receptor) [nM] | IC50 (adrenomedullin receptor) [nM] | IC50 (amylin receptors) [nM] | Molecule | also measured |
| --- | --- | --- | --- | --- | --- |
| 37 | 128 | ≥ 1000 |  | CC(C)C[C@H](NC(=O)[C@H](CCC(N)=O)NC(=O)[C@H](Cc1c[nH]c2ccccc12)NC(=O)[C@H](CC(C)C)NC(=O)[C@H](CCCNC(=N)N)NC(=O)[C@H](Cc1c[nH]cn1)NC(=O)[C@H](CO)NC(=O)[C@H](CC(C)C)NC(=O)[C@H](CC(N)=O)NC(=O)[C@H](CCC(N)=O)NC(=O)[C@@H](NC(=O)[C@H](CCC(N)=O)NC(=O)[C@@H]1CSSC[C@H](NC(=O)[C@@H](N)C(C)C)C(=O)N[C@@H](CC(N)=O)C(=O)N[C@@H]([C@@H](C)O)C(=O)N[C@@H](C)C(=O)N[C@@H]([C@@H](C)O)C(=O)N1)C(C)C)C(=O)N[C@@H](CCCNC(=N)N)C(=O)N[C@@H](CCC(N)=O)C(=O)N[C@@H](CC(=O)O)C(=O)N[C@@H](CO)C(=O)N[C@@H](C)C(=O)N1CCC[C@H]1C(=O)N[C@H](C(=O)N[C@@H](CC(=O)O)C(=O)N1CCC[C@H]1C(=O)N[C@@H](CO)C(=O)N[C@@H](CO)C(=O)N1CCC[C@H]1C(=O)N[C@@H](Cc1c[nH]cn1)C(=O)N[C@@H](CO)C(=O)N[C@@H](Cc1ccc(O)cc1)C(N)=O)C(C)C [compound 30] (H-VCNTATCQVQNLSHRLWQLRQDSAPVDPSSPHSY-NH2; disulfide 2-7 (inferred)) |  |
| 18 | 51 | ≥ 1000 | 12 | CC(C)C[C@H](NC(=O)[C@H](CCC(N)=O)NC(=O)[C@H](Cc1c[nH]c2ccccc12)NC(=O)[C@H](CC(C)C)NC(=O)[C@H](CCCNC(=N)N)NC(=O)[C@H](Cc1c[nH]cn1)NC(=O)[C@H](CO)NC(=O)[C@H](CC(C)C)NC(=O)[C@H](CC(N)=O)NC(=O)[C@H](CCC(N)=O)NC(=O)[C@@H](NC(=O)[C@H](CCC(N)=O)NC(=O)[C@@H]1CSSC[C@H](NC(=O)CN)C(=O)N[C@@H](CC(N)=O)C(=O)N[C@@H]([C@@H](C)O)C(=O)N[C@@H](C)C(=O)N[C@@H]([C@@H](C)O)C(=O)N1)C(C)C)C(=O)N[C@@H](CCCNC(=N)N)C(=O)N[C@@H](CCC(N)=O)C(=O)N[C@@H](CC(=O)O)C(=O)N[C@@H](CO)C(=O)N[C@@H](C)C(=O)N1CCC[C@H]1C(=O)N[C@H](C(=O)N[C@@H](CC(=O)O)C(=O)N1CCC[C@H]1C(=O)N[C@@H](CO)C(=O)N[C@@H](CO)C(=O)N1CCC[C@H]1C(=O)N[C@@H](Cc1c[nH]cn1)C(=O)N[C@@H](CO)C(=O)N[C@@H](Cc1ccc(O)cc1)C(N)=O)C(C)C [compound 31] (H-GCNTATCQVQNLSHRLWQLRQDSAPVDPSSPHSY-NH2; disulfide 2-7 (inferred); N-terminus assumed) |  |
| > 1000 | 31 | ≥ 1000 |  | CC(C)C[C@@H]1NC(=O)[C@H](CC(N)=O)NC(=O)CNC(=O)[C@@H](NC(=O)CN)CSSC[C@@H](C(=O)N[C@@H](CCC(N)=O)C(=O)N[C@H](C(=O)N[C@@H](CCC(N)=O)C(=O)N[C@@H](CC(N)=O)C(=O)N[C@@H](CC(C)C)C(=O)N[C@@H](CO)C(=O)N[C@@H](Cc2c[nH]cn2)C(=O)N[C@@H](CCCNC(=N)N)C(=O)N[C@@H](CC(C)C)C(=O)N[C@@H](Cc2c[nH]c3ccccc23)C(=O)N[C@@H](CCC(N)=O)C(=O)N[C@@H](CC(C)C)C(=O)N[C@@H](CCCNC(=N)N)C(=O)N[C@@H](CCC(N)=O)C(=O)N[C@@H](CC(=O)O)C(=O)N[C@@H](CO)C(=O)N[C@@H](C)C(=O)N2CCC[C@H]2C(=O)N[C@H](C(=O)N[C@@H](CCC(=O)O)C(=O)N2CCC[C@H]2C(=O)N[C@@H](CO)C(=O)N[C@@H](CO)C(=O)N2CCC[C@H]2C(=O)N[C@@H](Cc2c[nH]cn2)C(=O)N[C@@H](CO)C(=O)N[C@@H](Cc2ccc(O)cc2)C(N)=O)C(C)C)C(C)C)NC(=O)[C@H]([C@@H](C)O)NC(=O)[C@H](CO)NC1=O [compound 39] (H-GCGNLSTCQVQNLSHRLWQLRQDSAPVEPSSPHSY-NH2; disulfide 2-8 (inferred); N-terminus assumed) |  |
| > 1000 | > 1000 | ≥ 1000 | > 1000 | CC(C)C[C@H](NC(=O)[C@H](CCC(N)=O)NC(=O)[C@H](Cc1c[nH]c2ccccc12)NC(=O)[C@H](CC(C)C)NC(=O)[C@H](CCCNC(=N)N)NC(=O)[C@H](Cc1c[nH]cn1)NC(=O)[C@H](CO)NC(=O)[C@H](CC(C)C)NC(=O)[C@H](CC(N)=O)NC(=O)[C@H](CCC(N)=O)NC(=O)[C@@H](NC(=O)[C@H](CCC(N)=O)NC(=O)[C@@H]1CSSC[C@H](NC(=O)CN)C(=O)N[C@@H](C(C)C)C(=O)N[C@@H](CC(C)C)C(=O)NCC(=O)N[C@@H]([C@@H](C)O)C(=O)N1)C(C)C)C(=O)N[C@@H](CCCNC(=N)N)C(=O)N[C@@H](CCC(N)=O)C(=O)N[C@@H](CCC(=O)O)C(=O)N[C@@H](CO)C(=O)N[C@@H](C)C(=O)N1CCC[C@H]1C(=O)N[C@H](C(=O)N[C@@H](CCC(=O)O)C(=O)N1CCC[C@H]1C(=O)N[C@@H](CO)C(=O)N[C@@H](CO)C(=O)N1CCC[C@H]1C(=O)N[C@@H](Cc1c[nH]cn1)C(=O)N[C@@H](CO)C(=O)N[C@@H](Cc1ccc(O)cc1)C(N)=O)C(C)C [compound 40] (H-GCVLGTCQVQNLSHRLWQLRQESAPVEPSSPHSY-NH2; disulfide 2-7) |  |
| 35 | 7.3 | 19 | 2.4 | H-RVGCGNLSTCQVQNLSHRLWQLMGPAGRQDSAPVDPSSPHSY-NH2 (disulfide 4-10 (inferred)) [compound 22] |  |
| > 1000 | > 1000 | ≥ 1000 | > 1000 | H-VGMVLGTMQVQNLSHRLWQLRQDSAPVDPSSPHSY-NH2 [compound 27] |  |
